c1ccc2c(c1)Cc1ccccc1-2
solubility (mole fraction) (in THF, 278.15 K): 0.12 | solubility (mole fraction) (in THF, 283.15 K): 0.13 | solubility (mole fraction) (in THF, 288.15 K): 0.148 | solubility (mole fraction) (in THF, 293.15 K): 0.163 | solubility (mole fraction) (in THF, 298.15 K): 0.182 | solubility (mole fraction) (in THF, 303.15 K): 0.2 | solubility (mole fraction) (in THF, 308.15 K): 0.225 | solubility (mole fraction) (in THF, 313.15 K): 0.248 | solubility (mole fraction) (in THF, 318.15 K): 0.273 | solubility (mole fraction) (in acetone, 278.15 K): 0.0353 | solubility (mole fraction) (in acetone, 283.15 K): 0.0406 | solubility (mole fraction) (in acetone, 288.15 K): 0.0482 | solubility (mole fraction) (in acetone, 293.15 K): 0.0567 | solubility (mole fraction) (in acetone, 298.15 K): 0.0658 | solubility (mole fraction) (in acetone, 303.15 K): 0.0779 | solubility (mole fraction) (in acetone, 308.15 K): 0.0931 | solubility (mole fraction) (in acetone, 313.15 K): 0.109 | solubility (mole fraction) (in acetone, 318.15 K): 0.126 | solubility (mole fraction) (in acetonitrile, 278.15 K): 0.0101 | solubility (mole fraction) (in acetonitrile, 283.15 K): 0.0113 | solubility (mole fraction) (in acetonitrile, 288.15 K): 0.0138 | solubility (mole fraction) (in acetonitrile, 293.15 K): 0.0161 | solubility (mole fraction) (in acetonitrile, 298.15 K): 0.0197 | solubility (mole fraction) (in acetonitrile, 303.15 K): 0.0235 | solubility (mole fraction) (in acetonitrile, 308.15 K): 0.0288 | solubility (mole fraction) (in acetonitrile, 313.15 K): 0.0345 | solubility (mole fraction) (in acetonitrile, 318.15 K): 0.0406 | solubility (mole fraction) (in ethanol, 278.15 K): 0.0038 | solubility (mole fraction) (in ethanol, 283.15 K): 0.00448 | solubility (mole fraction) (in ethanol, 288.15 K): 0.0055 | solubility (mole fraction) (in ethanol, 293.15 K): 0.00669 | solubility (mole fraction) (in ethanol, 298.15 K): 0.00816 | solubility (mole fraction) (in ethanol, 303.15 K): 0.00937 | solubility (mole fraction) (in ethanol, 308.15 K): 0.0111 | solubility (mole fraction) (in ethanol, 313.15 K): 0.0132 | solubility (mole fraction) (in ethanol, 318.15 K): 0.0154 | solubility (mole fraction) (in ethyl acetate, 278.15 K): 0.046 | solubility (mole fraction) (in ethyl acetate, 283.15 K): 0.0542 | solubility (mole fraction) (in ethyl acetate, 288.15 K): 0.062 | solubility (mole fraction) (in ethyl acetate, 293.15 K): 0.0737 | solubility (mole fraction) (in ethyl acetate, 298.15 K): 0.0866 | solubility (mole fraction) (in ethyl acetate, 303.15 K): 0.102 | solubility (mole fraction) (in ethyl acetate, 308.15 K): 0.119 | solubility (mole fraction) (in ethyl acetate, 313.15 K): 0.139 | solubility (mole fraction) (in ethyl acetate, 318.15 K): 0.163 | solubility (mole fraction) (in ethyl formate, 278.15 K): 0.0346 | solubility (mole fraction) (in ethyl formate, 283.15 K): 0.0395 | solubility (mole fraction) (in ethyl formate, 288.15 K): 0.046 | solubility (mole fraction) (in ethyl formate, 293.15 K): 0.0552 | solubility (mole fraction) (in ethyl formate, 298.15 K): 0.0654 | solubility (mole fraction) (in ethyl formate, 303.15 K): 0.0781 | solubility (mole fraction) (in ethyl formate, 308.15 K): 0.0933 | solubility (mole fraction) (in ethyl formate, 313.15 K): 0.112 | solubility (mole fraction) (in ethyl formate, 318.15 K): 0.133 | solubility (mole fraction) (in isobutyl acetate, 278.15 K): 0.0546 | solubility (mole fraction) (in isobutyl acetate, 283.15 K): 0.0611 | solubility (mole fraction) (in isobutyl acetate, 288.15 K): 0.0718 | solubility (mole fraction) (in isobutyl acetate, 293.15 K): 0.0816 | solubility (mole fraction) (in isobutyl acetate, 298.15 K): 0.0914 | solubility (mole fraction) (in isobutyl acetate, 303.15 K): 0.104 | solubility (mole fraction) (in isobutyl acetate, 308.15 K): 0.124 | solubility (mole fraction) (in isobutyl acetate, 313.15 K): 0.142 | solubility (mole fraction) (in isobutyl acetate, 318.15 K): 0.162 | solubility (mole fraction) (in isopropanol, 278.15 K): 0.00401 | solubility (mole fraction) (in isopropanol, 283.15 K): 0.0045 | solubility (mole fraction) (in isopropanol, 288.15 K): 0.00559 | solubility (mole fraction) (in isopropanol, 293.15 K): 0.00675 | solubility (mole fraction) (in isopropanol, 298.15 K): 0.00808 | solubility (mole fraction) (in isopropanol, 303.15 K): 0.00943 | solubility (mole fraction) (in isopropanol, 308.15 K): 0.0121 | solubility (mole fraction) (in isopropanol, 313.15 K): 0.0149 | solubility (mole fraction) (in isopropanol, 318.15 K): 0.0177 | solubility (mole fraction) (in isopropyl acetate, 278.15 K): 0.044 | solubility (mole fraction) (in isopropyl acetate, 283.15 K): 0.0504 | solubility (mole fraction) (in isopropyl acetate, 288.15 K): 0.058 | solubility (mole fraction) (in isopropyl acetate, 293.15 K): 0.0695 | solubility (mole fraction) (in isopropyl acetate, 298.15 K): 0.0812 | solubility (mole fraction) (in isopropyl acetate, 303.15 K): 0.0936 | solubility (mole fraction) (in isopropyl acetate, 308.15 K): 0.11 | solubility (mole fraction) (in isopropyl acetate, 313.15 K): 0.127 | solubility (mole fraction) (in isopropyl acetate, 318.15 K): 0.148 | solubility (mole fraction) (in methanol, 278.15 K): 0.00199 | solubility (mole fraction) (in methanol, 283.15 K): 0.00235 | solubility (mole fraction) (in methanol, 288.15 K): 0.00275 | solubility (mole fraction) (in methanol, 293.15 K): 0.00313 | solubility (mole fraction) (in methanol, 298.15 K): 0.00395 | solubility (mole fraction) (in methanol, 303.15 K): 0.00452 | solubility (mole fraction) (in methanol, 308.15 K): 0.00528 | solubility (mole fraction) (in methanol, 313.15 K): 0.00645 | solubility (mole fraction) (in methanol, 318.15 K): 0.00709 | solubility (mole fraction) (in methyl acetate, 278.15 K): 0.0374 | solubility (mole fraction) (in methyl acetate, 283.15 K): 0.0422 | solubility (mole fraction) (in methyl acetate, 288.15 K): 0.0498 | solubility (mole fraction) (in methyl acetate, 293.15 K): 0.0607 | solubility (mole fraction) (in methyl acetate, 298.15 K): 0.0712 | solubility (mole fraction) (in methyl acetate, 303.15 K): 0.0856 | solubility (mole fraction) (in methyl acetate, 308.15 K): 0.1 | solubility (mole fraction) (in methyl acetate, 313.15 K): 0.12 | solubility (mole fraction) (in methyl acetate, 318.15 K): 0.142 | solubility (mole fraction) (in n-butyl acetate, 278.15 K): 0.0693 | solubility (mole fraction) (in n-butyl acetate, 283.15 K): 0.0756 | solubility (mole fraction) (in n-butyl acetate, 288.15 K): 0.0874 | solubility (mole fraction) (in n-butyl acetate, 293.15 K): 0.0991 | solubility (mole fraction) (in n-butyl acetate, 298.15 K): 0.111 | solubility (mole fraction) (in n-butyl acetate, 303.15 K): 0.121 | solubility (mole fraction) (in n-butyl acetate, 308.15 K): 0.146 | solubility (mole fraction) (in n-butyl acetate, 313.15 K): 0.167 | solubility (mole fraction) (in n-butyl acetate, 318.15 K): 0.19 | solubility (mole fraction) (in n-propanol, 278.15 K): 0.0052 | solubility (mole fraction) (in n-propanol, 283.15 K): 0.00612 | solubility (mole fraction) (in n-propanol, 288.15 K): 0.0072 | solubility (mole fraction) (in n-propanol, 293.15 K): 0.009 | solubility (mole fraction) (in n-propanol, 298.15 K): 0.0112 | solubility (mole fraction) (in n-propanol, 303.15 K): 0.013 | solubility (mole fraction) (in n-propanol, 308.15 K): 0.0155 | solubility (mole fraction) (in n-propanol, 313.15 K): 0.0186 | solubility (mole fraction) (in n-propanol, 318.15 K): 0.0216 | solubility (mole fraction) (in n-propyl acetate, 278.15 K): 0.0596 | solubility (mole fraction) (in n-propyl acetate, 283.15 K): 0.0671 | solubility (mole fraction) (in n-propyl acetate, 288.15 K): 0.0763 | solubility (mole fraction) (in n-propyl acetate, 293.15 K): 0.0862 | solubility (mole fraction) (in n-propyl acetate, 298.15 K): 0.0969 | solubility (mole fraction) (in n-propyl acetate, 303.15 K): 0.108 | solubility (mole fraction) (in n-propyl acetate, 308.15 K): 0.134 | solubility (mole fraction) (in n-propyl acetate, 313.15 K): 0.153 | solubility (mole fraction) (in n-propyl acetate, 318.15 K): 0.176

Source: BigSolDB 2.1
